Patent publication US4857650A, “Novel renin inhibitory amino acid derivatives” (Kissei Pharmaceutical Co., Ltd., priority 1985, dated 1989)

How the values were obtained:
[1] = target: T1, renin in human high renin plasma (Homo sapiens, UniProt P00797); assay: Renin inhibitory effect in a human high renin plasma; type: biochemical; settings: pH 7.4, 30 minutes at 37° C., read-out: IC50 (molar concentration)
T1 construct: 500 μl of human high renin plasma; from tissue; host or cells: human high renin plasma
T1 sequence (P00797 67-406): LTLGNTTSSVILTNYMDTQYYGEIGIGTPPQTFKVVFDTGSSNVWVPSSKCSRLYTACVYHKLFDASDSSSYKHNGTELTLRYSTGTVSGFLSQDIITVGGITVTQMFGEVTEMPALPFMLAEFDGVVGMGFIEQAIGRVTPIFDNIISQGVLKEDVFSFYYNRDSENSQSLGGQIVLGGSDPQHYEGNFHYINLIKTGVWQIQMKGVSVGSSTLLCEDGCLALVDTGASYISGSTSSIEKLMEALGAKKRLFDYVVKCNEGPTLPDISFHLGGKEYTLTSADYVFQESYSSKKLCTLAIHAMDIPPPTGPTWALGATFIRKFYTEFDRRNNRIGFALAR
Procedure: Renin inhibitory effect in a human high renin plasma A mixture of 350 μl of a 0.5M phosphate buffer containing 14 mM EDTA 2Na and a 0.3% neomycin sulfate, which was adjusted to the pH of 7.4, 50 μl of a 20 mM an aqueous solution of […] as an angiotensin converting enzyme inhibitor and 100 μl of dimethyl sulfoxide solution containing an amino acid compound of the present invention was added to 500 μl of human high renin plasma. […] was incubated for 30 minutes at 37° C. in a water bath. A 200 μl sample was withdrawn from the incubated mixture, chilled immediately in an ice bath, and the amount of angiotensin I produced was determined by radioimmunoassay, and remaining of the mixture (200 μ[…] 4° C. in an ice bath. The amount of angiotensin I produced in the incubated mixture at 4° C. in an ice bath was determined by radioimmunoassay. As a control, the same procedure as above was carried out by using 100 μl of dimethyl sulfoxide alone in place of the 100 μl of dimethyl sulfoxide solution containing an amino acid compound of the present invention. The inhibitory effect was calculated by the following equation. [formula] The molar concentration which produced 50% inhibition (IC50) was calculated from the inhibition value obtained, and the results are shown below.

human renin = target: T2, human renin (Homo sapiens, UniProt P00797); assay: Human renin-sheep renin substrate reaction system in vitro; type: biochemical; settings: pH 7.4, 15 minutes at 37° C., read-out: IC50 (molar concentration)
T2 sequence (P00797 67-406): T1 sequence (P00797 67-406)
Procedure: Human resin-sheep resin substrate reaction system in vitro To a mixture containing 200 μl of a 125 mM pyrophosphate buffer (pH 7.4), 25 μl of a 20 mM aqueous solution of […] as an angiotensin converting enzyme inhibitor, 50 μl of semipurified sheep renin substrate ([…]), 50 μl of dimethyl sulfoxide solution of an amino acid derivative of the present invention (or 50 μl of dimethyl sulfoxide as a control) and 150 μl of deionized water was added 25 μl of purified human renin (20-30 ng angiotensin I/ml/hr). The mixture was incubated for 15 minutes on a water bath at 37° C., and the reaction mixture was allowed to stand for 5 minutes on a water bath at 100° C. to stop the reaction. After cooling, 200 μl of the solution were taken up and the amount of angiotensin I produced by the addition of renin was determined by radioimmunoassay. The inhibitory effect was calculated by the following equation. [formula] The molar concentration which produced 50% inhibition (IC50) was calculated from the inhibition value obtained, and the results are shown below.

| Compound | IC50 [1] | IC50 (human renin) |
| --- | --- | --- |
| COC(=O)CC(Cc1cccc2ccccc12)C(=O)N[C@@H](Cc1c[nH]cn1)C(=O)N[C@@H](CC(C)C)C(O)C(=O)NCCC(C)C (mixture of isomers) [(2RS,3S)-3-[3-Methoxycarbonyl-2-(1-naphthylmethyl)propionyl-L-histidyl]amino-2-hydroxy-5-methylhexanoylisoamylamide] | 690 nM | 220 nM |
| COC(=O)CN(C)C(=O)CC(Cc1cccc2ccccc12)C(=O)N[C@@H](Cc1c[nH]cn1)C(=O)N[C@@H](CC(C)C)C(O)C(=O)NCCC(C)C (mixture of isomers) [(2RS,3S)-3-{N-[2-(1-Naphthylmethyl)-3-(N-methyl-N-methoxycarbonylmethylcarbamoyl)propionyl]-L-histidyl}amino-2-hydroxy-5-methylhexanoylisoamylamide] | 339 nM | 23 nM |
| CC(C)C[C@H](NC(=O)[C@H](Cc1c[nH]cn1)NC(=O)C(CC(N)=O)Cc1cccc2ccccc12)C(O)C(=O)OC(C)C (mixture of isomers) [Isopropyl (2RS,3S)-3-{N-[3-(carbamoyl)-2-(1-naphthylmethyl)propionyl]-L-histidyl}amino-2-hydroxy-5-methylhexanoate] | 490 nM | 520 nM |
| CC(C)C[C@H](NC(=O)[C@H](Cc1c[nH]cn1)NC(=O)C(CC(=O)OC(C)C)Cc1cccc2ccccc12)C(O)C(=O)OC(C)C (mixture of isomers) [Isopropyl (2RS,3S)-3-{N-[3-(isopropoxycarbonyl)-2-(1-naphthylmethyl)propionyl]-L-histidyl}amino-2-hydroxy-5-methylhexanoate] | 160 nM | 64 nM |
| COC(=O)CNC(=O)CC(Cc1cccc2ccccc12)C(=O)N[C@@H](Cc1c[nH]cn1)C(=O)N[C@@H](CC(C)C)C(O)C(=O)OC(C)C (mixture of isomers) [Isopropyl(2RS,3S)-3-{N-[2-(1-naphthylmethyl)-3-(N-methoxycarbonylmethylcarbamoyl)propionyl]-L-histidyl}amino-2-hydroxy-5-methylhexanoate] | 76 nM | 240 nM |
| CNC(=O)CNC(=O)CC(Cc1cccc2ccccc12)C(=O)N[C@@H](Cc1c[nH]cn1)C(=O)N[C@@H](CC(C)C)C(O)C(=O)OC(C)C (mixture of isomers) [Isopropyl(2RS,3S)-3-{N-[2-(1-naphthylmethyl)-3-(N-methylcarbamoylmethylcarbamoyl)propionyl]-L-histidyl}amino-2-hydroxy-5-methylhexanoate] | 290 nM | 620 nM |
| CC(C)C[C@H](NC(=O)[C@H](Cc1c[nH]cn1)NC(=O)C(CC(=O)N(C)CCO)Cc1cccc2ccccc12)C(O)C(=O)OC(C)C (mixture of isomers) [Isopropyl(2RS,3S)-3-{N-{2-(1-naphthylmethyl)-3-[N-methyl-N-(2-hydroxyethyl)carbamoyl]propionyl}-L-histidyl}amino-2-hydroxy-5-methylhexanoate] | 28 nM | 41 nM |
| COC(=O)CCN(C)C(=O)CC(Cc1cccc2ccccc12)C(=O)N[C@@H](Cc1c[nH]cn1)C(=O)N[C@@H](CC(C)C)C(O)C(=O)OC(C)C (mixture of isomers) [Isopropyl(2RS,3S)-3-{N-{2-(1-naphthylmethyl)-3-[N-methyl-N-{2-methoxycarbonylethyl)carbamoyl]propionyl}-L-histidyl}amino-2-hydroxy-5-methylhexanoate] | 17 nM | 17 nM |
| CC(C)C[C@H](NC(=O)[C@H](Cc1c[nH]cn1)NC(=O)C(CC(=O)N(CCO)CCO)Cc1cccc2ccccc12)C(O)C(=O)OC(C)C (mixture of isomers) [Isopropyl(2RS,3S)-3-{N-{2-(1-naphthylmethyl)-3-[bis(2-hydroxyethyl)carbamoyl]propionyl}-L-histidyl}amino-2-hydroxy-5-methylhexanoate] | 180 nM | 89 nM |
| COC(=O)CN(C)C(=O)CC(Cc1cccc2ccccc12)C(=O)N[C@@H](Cc1c[nH]cn1)C(=O)N[C@@H](CC(C)C)C(O)C(=O)OC (mixture of isomers) [Methyl(2RS,3S)-3-{N-[2-(1-naphthylmethyl)-3-(N-methyl-N-methoxycarbonylmethylcarbamoyl)propionyl]-L-histidyl}amino-2-hydroxy-5-methylhexanoate] | 14 nM | 12 nM |
| COC(=O)[C@@H]1CCCN1C(=O)CC(Cc1cccc2ccccc12)C(=O)N[C@@H](Cc1c[nH]cn1)C(=O)N[C@@H](CC(C)C)C(O)C(=O)NCCC(C)C (stereo partly drawn) [(2RS,3S)-3-{N-[2-(1-Naphthylmethyl)-3-(2S-methoxycarbonylpyrrolidinocarbonyl)propionyl]-L-histidyl}amino-2-hydroxy-5-methylhexanoylisoamylamide] | 290 nM | 84 nM |
| CC(C)C[C@H](NC(=O)[C@H](Cc1c[nH]cn1)NC(=O)C(CC(=O)N1CCC[C@H]1CO)Cc1cccc2ccccc12)C(O)C(=O)OC(C)C (stereo partly drawn) [Isopropyl(2RS,3S)-3-{N-[2-(1-naphthylmethyl)-3-(2S-hydroxymethylpyrrolidinocarbonyl)propionyl]-L-histidyl}amino-2-hydroxy-5-methylhexanoate] | 140 nM | 23 nM |
| COC(=O)[C@@H]1CC(O)CN1C(=O)CC(Cc1cccc2ccccc12)C(=O)N[C@@H](Cc1c[nH]cn1)C(=O)N[C@@H](CC(C)C)C(O)C(=O)OC(C)C (stereo partly drawn) [Isopropyl(2RS,3S)-3-{N-[2-(1-naphthylmethyl)-3-(4-hydroxy-2S-methoxycarbonylpyrrolidinocarbonyl)-propionyl]-L-histidyl}amino-2-hydroxy-5-methylhexanoate] | 190 nM | 41 nM |
| CC(C)C[C@H](NC(=O)[C@H](Cc1c[nH]cn1)NC(=O)C(CC(=O)N[C@@H](C)C(N)=O)Cc1cccc2ccccc12)C(O)C(=O)OC(C)C (stereo partly drawn) [Isopropyl(2RS,3S)-3-{N-{2-(1-naphthylmethyl)-3-[N-(1S-carbamoylethyl)carbamoyl]propionyl}-L-histidyl}amino-2-hydroxy-5-methylhexanoate] | 240 nM | 440 nM |
| COC(=O)[C@H](C)NC(=O)CC(Cc1cccc2ccccc12)C(=O)N[C@@H](Cc1c[nH]cn1)C(=O)N[C@@H](CC(C)C)C(O)C(=O)OC(C)C (stereo partly drawn) [Isopropyl(2RS,3S)-3-{N-{2-(1-naphthylmethyl)-3-[N-(1S-methoxycarbonylethyl)carbamoyl]propionyl}-L-histidyl}amino-2-hydroxy-5-methylhexanoate] | 210 nM | 300 nM |
| COC(=O)C[C@@H](C(=O)OC)N(C)C(=O)CC(Cc1cccc2ccccc12)C(=O)N[C@@H](Cc1c[nH]cn1)C(=O)N[C@@H](CC(C)C)C(O)C(=O)OC(C)C (stereo partly drawn) [Isopropyl(2RS,3S)-3-{N-{2-(1-naphthylmethyl)-3-[N-methyl-N-(1S,2-bismethoxycarbonylethyl)carbamoyl]-propionyl}-L-histidyl}amino-2-hydroxy-5-methylhexanoate] | 190 nM | 81 nM |
| COC(=O)[C@H](C)N(C)C(=O)CC(Cc1cccc2ccccc12)C(=O)N[C@@H](Cc1c[nH]cn1)C(=O)N[C@@H](CC(C)C)C(O)C(=O)OC(C)C (stereo partly drawn) [Isopropyl(2RS,3S)-3-{N-{2-(1-naphthylmethyl)-3-[N-methyl-N-(1S-methoxycarbonylethyl)carbamoyl]propionyl}-L-histidyl}amino-2-hydroxy-5-methylhexanoate] | 16 nM | 33 nM |
